Experimental data: patent publication US8962606B2, “Substituted benzosulphonamides” (Bayer Intellectual Property GmbH, priority 2009, dated 2015)

How the values were obtained:
[1] = tested on: A375 cells [human melanoma cell line, expressing mutant BRAF V600E]; assay: A375 Crystal Violet (CV) Proliferation Assay [Assay 5]; type: cell-based; conditions: A-375, 96 h, crystal violet staining, 4 days incubation
Procedure: Assay 5: A375 Crystal Violet (CV) Proliferation Assay:
Cell proliferation for A375 cells [human melanoma cell line, expressing mutant BRAF V600E] was measured by crystal violet (CV) staining: Cultivated human A375 cells were plated out in a density of 1500 cells/measurement point in 200 μl of growth medium (DMEM/HAMS F12 with 10% FBS and 2 mM Glutamine) in a 96-well multititer plate. After 24 hours, the cells from a plate (zero plate) were stained with crystal violet (see below), while the medium in the other plates was replaced by fresh culture medium (200 μl) to which the test substances had been added in various concentrations (0 μM, and in the range 0.3 nM-30 μM; the final concentration of the solvent dimethyl sulphoxide was 0.5%). The cells were incubated in the presence of the test substances for 4 days. The cell proliferation was determined by staining the cells with crystal violet: the cells were fixed by adding 20 μl/measurement point of an 11% glutaraldehyde solution at room temperature for 15 min. After the fixed cells had been washed three times with water, the plates were dried at room temperature. The cells were stained by adding 100 μl/measurement point of a 0.1% crystal violet solution (pH adjusted to pH 3 by adding acetic acid). After the stained cells had been washed three times with water, the plates were dried at room temperature. The dye was dissolved by adding 100 μl/measurement point of a 10% acetic acid solution, and the extinction was determined by photometry at a wavelength of 595 nm. The percentage change in cell growth was calculated by normalizing the measurements to the extinctions of the zero point plate (=0%) and the extinction of the untreated (0 μM) cells (=100%). The IC50 values were determined by means of a 4-parameter fit using the company's own software.

[2] = tested on: A549 cells [human non small cell lung cancer cell line, expressing mutant K-Ras G12S]; assay: A549 Cell Titer Glo (CTG) Proliferation Assay [Assay 2]; type: cell-based; conditions: 72 hours incubation
Procedure: (§1) HCT116 cells [human colorectal cell line, expressing […]] were plated at a density of 3000 cells/well in 96 well black-clear bottom tissue culture plates (Costar 3603 black/clear bottom) in 100 μl/well DMEM medium (DMEM/Ham's F12) with 10% Fetal Bovine Serum (FBS) and stable Glutamine incubated at 37° C. Sister wells were plated in separate plate for time zero determination. All plates were incubated overnight at 37° C. Take down time zero plate: 100 μl/well CTG solution (Promega Cell Titer Glo solution) were added to time zero wells in sister plate; the plates were mixed for 2 min on orbital shaker to ensure cell lysis, incubated for 10 minutes, luminescence was read on VICTOR3 (Perkin Elmer). Twenty-four hours after cell seeding, test compounds were diluted in 50 μl medium and were added at a final concentration range from as high 10 μM to as low […] depending on the activities of the tested compounds in serial dilutions at a final DMSO concentration of 0.4%. Cells were incubated for 72 hours at 37° C. after addition of the test compound. Then, using a Promega Cell Titer Glo Luminescent® assay kit, 100 μl microliter lysis buffer containing of the enzyme luciferase and its substrate, luciferin mixture, were added to each well and incubated for 10 min at room temperature in the dark to stabilize luminescence signal. The samples were read on VICTOR3 (Perkin Elmer) using Luminescence protocol. The percentage change in cell growth was calculated by normalizing the measurements to the extinctions of the zero point plate (=0%) and the extinction of the untreated (0 μM) cells (=100%). The IC50 values were determined by means of a 4-parameter fit using the company's own software.
Assay 2: A549 Cell Titer Glo (CTG) Proliferation Assay:
A549 cells [human non small cell lung cancer cell line, expressing mutant K-Ras G12S] were seeded at a density of 2000 cells/well in 96 well black-clear bottom tissue culture plates (Costar 3603 black/clear bottom) in 100 μl/well DMEM medium (DMEM/Ham's F12) with 10% Fetal Bovine Serum (FBS) and stable Glutamine incubated at 37° C. Cell Titer Glo proliferation assays for A549 cells were performed with the same protocol as described afore for HCT116 cells.

[3] = tested on: HCT116 cells [human colorectal cell line]; assay: HCT116 Cell Titer Glo (CTG) Proliferation Assay [Assay 1]; type: cell-based; conditions: HCT-116, 72 hours incubation
Excerpt: Cell Titer Glo Proliferation Assay
The adherent tumor cell proliferation assay used to test the compounds of the present invention involves a readout called Cell Titre-Glo developed by Promega (Cunningham, B A “A Growing Issue: Cell Proliferation Assays. Modern kits ease quantification of cell growth” The Scientist 2001, 15(13), 26, and Crouch, S P et al., “The use of ATP bioluminescence as a measure of cell proliferation and cytotoxicity” Journal of Immunological Methods 1993, 160, 8 1-88).
Assay 1: HCT116 Cell Titer Glo (CTG) Proliferation Assay:
as §1

MEK1/2 = conditions: second-generation MEK1/2 inhibitor, background [17]; cited from earlier work
colon cancer = conditions: oral treatment, mouse models, background [18]; cited from earlier work

| SMILES | IC50 [1] | IC50 [2] | IC50 [3] | IC50 (MEK1/2) | colon cancer growth in vivo (colon cancer) |
| --- | --- | --- | --- | --- | --- |
| NS(=O)(=O)Nc1cc(Oc2cc(F)cc(Nc3ccc(I)cc3F)c2NS(=O)(=O)C2CC2)ccc1F [Example 14, N-{4-fluoro-2-[(2-fluoro-4-iodophenyl)amino]-6-[4-fluoro-3-(sulfamoylamino)phenoxy]phenyl}cyclopropanesulfonamide] | 18.6 nM | – | – | – | – |
| CCS(=O)(=O)Nc1cccc(Oc2cc(F)cc(Nc3ccc(I)cc3F)c2NS(N)(=O)=O)c1C [Example 8, N-(3-{5-fluoro-3-[(2-fluoro-4-iodophenyl)amino]-2-(sulfamoylamino)phenoxy}-2-methylphenyl)ethanesulfonamide] | 0.68 nM | 4.78 nM | 10 nM | – | – |
| C#Cc1ccc(Nc2cc(F)cc(Oc3cccc(NS(=O)(=O)CC)c3)c2NS(=O)(=O)C2CC2)c(F)c1 [Example 9, N-(2-{3-[(ethylsulfonyl)amino]phenoxy}-6-[(4-ethynyl-2-fluorophenyl)amino]-4-fluorophenyl)cyclopropanesulfonamide] | 2.39 nM | 137 nM | 59.6 nM | – | – |
| CCS(=O)(=O)Nc1cccc(Oc2cc(F)cc(Nc3ccc(I)cc3F)c2NS(C)(=O)=O)c1 [Example 2, N-(3-{5-fluoro-3-[(2-fluoro-4-iodophenyl)amino]-2-[(methylsulfonyl)-amino]phenoxy}-phenyl)ethane-sulfonamide] | 0.899 nM | 39.4 nM | 28.3 nM | – | – |
| CCS(=O)(=O)Nc1cccc(Oc2cc(F)cc(Nc3ccc(I)cc3F)c2NS(N)(=O)=O)c1 [Example 6, N-(3-{5-fluoro-3-[(2-fluoro-4-iodophenyl)amino]-2-(sulfamoylamino)phenoxy}phenyl)ethanesulfonamide] | 2.44 nM | 68.9 nM | 100 nM | – | – |
| CCS(=O)(=O)Nc1cccc(Oc2cc(F)cc(Nc3ccc(I)cc3F)c2NS(=O)(=O)C(C)C)c1 [Example 4, N-(2-{3-[(ethylsulfonyl)amino]phenoxy}-4-fluoro-6-[(2-fluoro-4-iodophenyl)amino]-phenyl)propane-2-sulfonamide] | 15.6 nM | 92.5 nM | 53.7 nM | – | – |
| CCS(=O)(=O)Nc1cccc(Oc2cc(F)cc(Nc3ccc(I)cc3F)c2NS(=O)(=O)C2CC2)c1 [Example 1, N-(2-{3-[(ethylsulfonyl)amino]phenoxy}-4-fluoro-6-[(2-fluoro-4-iodophenyl)amino]phenyl)cyclopropanesulfonamide] | 0.351 nM | 18.1 nM | 26.5 nM | – | – |
| CCS(=O)(=O)Nc1cccc(Oc2cc(F)cc(Nc3ccc(I)cc3F)c2NS(=O)(=O)C2CC2)c1C [Example 7, N-(2-{3-[(ethylsulfonyl)amino]-2-methylphenoxy}-4-fluoro-6-[(2-fluoro-4-iodophenyl)amino]phenyl)cyclopropanesulfonamide] | 0.171 nM | – | 3 nM | – | – |
| O=C(NOCC1CC1)c1ccc(F)c(F)c1Nc1ccc(I)cc1Cl [PD184352] | – | – | – | low nanomolar range | inhibit colon cancer growth in vivo |
| CCS(=O)(=O)Nc1cccc(Oc2cc(F)cc(Nc3ccc(I)cc3F)c2NS(=O)(=O)CC)c1 [Example 3, N-(3-{2-[(ethylsulfonyl)amino]-5-fluoro-3-[(2-fluoro-4-iodophenyl)amino]-phenoxy}phenyl)-ethanesulfonamide] | 1.56 nM | 73.6 nM | 31.7 nM | – | – |
| NC(=O)c1c(Nc2ccc(I)cc2F)cc(F)cc1Oc1cccc(NS(N)(=O)=O)c1 [reference compound] | 4.53 nM | 319 nM | 208 nM | – | – |
| NS(=O)(=O)Nc1cccc(Oc2cc(F)cc(Nc3ccc(I)cc3F)c2NS(=O)(=O)C2CC2)c1 [Example 11, N-{4-fluoro-2-[(2-fluoro-4-iodophenyl)amino]-6-[3-(sulfamoylamino)phenoxy]phenyl}cyclopropanesulfonamide] | – | 6.65 nM | 7.04 nM | – | – |
| CC(C)S(=O)(=O)Nc1cccc(Oc2cc(F)cc(Nc3ccc(I)cc3F)c2NS(=O)(=O)C2CC2)c1 [Example 12, N-(4-fluoro-2-[(2-fluoro-4-iodophenyl)amino]-6-{3-[(isopropylsulfonyl)amino]phenoxy}phenyl)cyclopropanesulfonamide] | 0.729 nM | 36.1 nM | 32 nM | – | – |
| C#Cc1ccc(Nc2cc(F)cc(Oc3cccc(NS(=O)(=O)CC)c3)c2NS(N)(=O)=O)c(F)c1 [Example 10, N-(3-{3-[(4-ethynyl-2-fluorophenyl)amino]-5-fluoro-2-(sulfamoylamino)phenoxy}phenyl)ethanesulfonamide] | 7.93 nM | 86.7 nM | 70 nM | – | – |
